In data set [1] the test system is peripheral leukocytes and lymphocytes. To be noted: conventional cytostatics and immunosuppressive agents; cited from earlier work.
Data set [2] has as its system Electro-convulsion. In words: Maximal electroconvulsion test. Format: in vivo. To be noted: Mus musculus, po; i.g., mice.
The nature of data set [3]: Water solubility. Type of data set: physicochemical. To be noted: dihydrochloride. The text has this:
Using a solution of HCl-gas in ethanol the compound can be converted to dihydrochloride, which is 4% water soluble.

For the compound `Cn1cnc([N+](=O)[O-])c1Sc1ncnc2nc[nH]c12` [Azathioprine], the “reattainment of normal hematological findings after discontinuation” value in data set [1] is reported as “No comparable short-term extensive reattainment of normal hematological findings”.

By ED50 is commonly meant the dose at which the effect has come halfway, by size or by number of responders. With `O=C1NC(=O)C(c2ccccc2)(c2ccccc2)N1` [Diphenylhydantoin, reference compound], the 50% effective dose (ED50) in data set [2] was 22.5 mg/kg.

For the compound `O=P1(N(CCCl)CCCl)NCCCO1` (centres unmarked) [cyclophosphamide], the “reattainment of normal hematological findings after discontinuation” value in data set [1] is “No comparable short-term extensive reattainment of normal hematological findings”.

For orientation: solubility means the dissolved amount per volume that the medium holds. A high value points to much dissolved substance. Compound `Cl.Cl.Nc1ccc(C(=O)Nc2ccccc2N)cc1` [dihydrochloride, 4-Amino-N-(2'aminophenyl)-benzamide-dihydrochloride] registered a solubility in data set [3] of 40 mg/mL.

`CN(Cc1cnc2nc(N)nc(N)c2n1)c1ccc(C(=O)N[C@@H](CCC(=O)O)C(=O)O)cc1` [methotrexate]: the “reattainment of normal hematological findings after discontinuation” value in data set [1] is given as “No comparable short-term extensive reattainment of normal hematological findings”.

(Values after patent publication US4933368A, “N-phenylbenzamide derivatives” (Godecke Aktiengesellschaft, priority 1983, dated 1990).)
